One assay deals with Chlorella sp. ATCC 7516. The assay can be described thus: Algal efficacy testing of dry paint films (modified ASTM 5589, 6-well plates). To be noted: 3 weeks; for % inhibition: at the total conc, vs blank; for Total conc: total biocide conc in paint reported for pass level ≧75% inhibition (max tested 5000 ppm if no pass). The class given is cell-based. As to the method:
(§1) KATHON™ 893T (100% OIT) and ROCIMA™ 200 (20% DCOIT) were post added to a white, acrylic/silicone based outdoor paint free of biocides to give a total active ingredient concentration of 10000 and 1000 ppm respectively. These paints were then diluted with an antimicrobial free acrylic/silicone based paint and mixed to prepare targeted concentrations of antimicrobial compounds for the testing. The total biocides concentrations tested were 125, 250, 500, 1000, 2000 and 5000 ppm. After biocides addition or dilution, the paints were mixed 90 seconds with the horse power shaker (AXEL 75M3372/Agitateur SO-10MI) until uniformity was achieved. Paints containing different antimicrobial compounds at the same levels were mixed together in order to obtain the desired ratio of antimicrobial compounds. After one day, the paints were applied to Schleicher & Schuell filter paper at 280 μm wet film thickness and dried for 3 days at room temperature avoiding direct exposure to sunlight. Square discs (1.6 cm×1.6 cm) were cut out from each panel and were used as the substrate for algal efficacy tests. This sample size allowed for an agar border when the sample disc was placed into the well of the test plate.
(§2) Algal efficacy was tested according to modified ASTM 5589 which is a standard accelerated test method for determining resistance of various coatings (including paints) to algal defacement. To accommodate for high-throughput screening, this method was scaled down from petri dishes to 6-well plates. Bold Modified Basal Freshwater Nutrient Solution was used as growth medium. A single coated filter paper coupon was placed with a pair of sterile forceps at the center of the agar plug (on top) with the painted surface facing upwards. Algal inoculums were prepared by mixing equal concentrations (1×10^6 cfu/ml) and equal volumes of exponentially growing algae cultures.
(§3) Each well that contains a tested coupon was inoculated with 1750 μl of algal suspensions (1×10^6 cfu/ml) making sure that the whole surface (paint film as well as the agar surrounding it) was evenly covered. The plates were incubated at room temp (21° C.-25° C.) with cyclic exposure to light and dark phases, for a period of three weeks.
(§4) At the end of the three week incubation period, the samples were scored for percent inhibition regarding visible algal growth compared to the blank sample (0% inhibition).
(§5) The SI is calculated based on F. C.
(§6) SI value of <1 in the formula indicates a synergism of the blended biocides exists.
(§7) The minimal targeted inhibition was set at 75%, meaning a coupon with at least 75% algal growth inhibition was considered as a pass.

The test system of assay [1] is Stichococcus bacillaris SAG 379-1a / CCAP 379/1a. Described as above. The class given is cell-based. To be noted: 3 weeks; for % inhibition: at the total conc, vs blank; for Total conc: total biocide conc in paint reported for pass level ≧75% inhibition (max tested 5000 ppm if no pass). How it is done: as §1, §2, §3, §4, §5, §6, §7

With `CCCCCCCCn1sc(Cl)c(Cl)c1=O` [DCOIT, 4,5-dichloro-2-n-octyl-4-isothiazolin-3-one], in the assay on Chlorella sp. ATCC 7516 (DCOIT/Lenacil table), the “% inhibition” value came out at 85% and the Total conc is on record as 1000 ppm. Also, in assay [1] (DCOIT/Lenacil table), the “% inhibition” value is given as 95% and the Total conc is given as 1000 ppm.
On to `O=c1[nH]c2c(c(=O)n1C1CCCCC1)CCC2` [Lenacil, 3-cyclohexyl-1,5,6,7-tetrahydrocyclopentapyrimidine-2,4(3H)-dione], for which the “% inhibition” value in the assay on Chlorella sp. ATCC 7516 (DCOIT/Lenacil table) stood at 30%; with Chlorella sp. ATCC 7516 (OIT/Lenacil table), 45%; in assay [1] (DCOIT/Lenacil table), 70%; in assay [1] (OIT/Lenacil table), 30%. Moreover, the Total conc (in the assay on Chlorella sp. ATCC 7516 (DCOIT/Lenacil table); in the assay on Chlorella sp. ATCC 7516 (OIT/Lenacil table); in assay [1] (DCOIT/Lenacil table); in assay [1] (OIT/Lenacil table)) was 5000 ppm in each case.
Consider `CCCCCCCCn1sccc1=O` [OIT, 2-n-octyl-4-isothiazolin-3-one], for which, in the assay with Chlorella sp. ATCC 7516 (OIT/Lenacil table), the “% inhibition” value came to 95% and the Total conc stood at 1000 ppm. Further, in assay [1] (OIT/Lenacil table), the “% inhibition” value is given as 90% and the Total conc is given as 500 ppm.

As a reminder, the % inhibition is the share of the control response that was lost under treatment.
